The source of these data is ChEMBL document CHEMBL4138130, “Effect of mofezolac-galactose distance in conjugates targeting cyclooxygenase (COX)-1 and CNS GLUT-1 carrier” (Eur J Med Chem, 2017).

Active and inactive are the calls of the source. The calls are words filed in the database; no cut-off is given here. Where only a bound is given, the exact number is not on record here.

Data set [1] has as its target T1, Solute carrier family 2, facilitated glucose transporter member 1 (Homo sapiens, UniProt P11166).
T1 sequence (P11166 whole entry): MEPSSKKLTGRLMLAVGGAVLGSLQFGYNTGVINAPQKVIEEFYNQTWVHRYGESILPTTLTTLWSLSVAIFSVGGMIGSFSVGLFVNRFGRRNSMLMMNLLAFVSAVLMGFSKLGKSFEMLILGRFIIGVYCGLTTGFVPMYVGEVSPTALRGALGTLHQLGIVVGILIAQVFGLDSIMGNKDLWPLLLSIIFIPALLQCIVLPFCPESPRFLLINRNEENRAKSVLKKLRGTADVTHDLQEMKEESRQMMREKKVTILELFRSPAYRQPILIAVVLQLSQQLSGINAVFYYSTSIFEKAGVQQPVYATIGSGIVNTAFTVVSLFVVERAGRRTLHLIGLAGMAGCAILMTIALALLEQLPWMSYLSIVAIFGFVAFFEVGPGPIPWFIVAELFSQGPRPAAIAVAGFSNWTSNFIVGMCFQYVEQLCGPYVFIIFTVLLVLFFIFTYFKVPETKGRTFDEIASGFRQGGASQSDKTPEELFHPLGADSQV
Briefly: Inhibition of GLUT1-mediated 2NBDG uptake in human Caco2 cells at 1 to 10 mM after 10 mins by Hoechst 33342 staining based fluorescence assay. In kind it is cell-based. The conditions noted are these: caco-2, 10 min, 10000 µM.

In data set [2] the target is T2, Prostaglandin G/H synthase 1 (Homo sapiens, UniProt P23219). Briefly: Inhibition of human COX1 assessed as reduction in appearance of oxidized TMPD at 50 uM using arachidonic acid as substrate by colorimetric assay relative to control.
Data set [3] has as its target T3, Prostaglandin G/H synthase 2 (Homo sapiens, UniProt P35354).
T3 sequence (P35354 whole entry): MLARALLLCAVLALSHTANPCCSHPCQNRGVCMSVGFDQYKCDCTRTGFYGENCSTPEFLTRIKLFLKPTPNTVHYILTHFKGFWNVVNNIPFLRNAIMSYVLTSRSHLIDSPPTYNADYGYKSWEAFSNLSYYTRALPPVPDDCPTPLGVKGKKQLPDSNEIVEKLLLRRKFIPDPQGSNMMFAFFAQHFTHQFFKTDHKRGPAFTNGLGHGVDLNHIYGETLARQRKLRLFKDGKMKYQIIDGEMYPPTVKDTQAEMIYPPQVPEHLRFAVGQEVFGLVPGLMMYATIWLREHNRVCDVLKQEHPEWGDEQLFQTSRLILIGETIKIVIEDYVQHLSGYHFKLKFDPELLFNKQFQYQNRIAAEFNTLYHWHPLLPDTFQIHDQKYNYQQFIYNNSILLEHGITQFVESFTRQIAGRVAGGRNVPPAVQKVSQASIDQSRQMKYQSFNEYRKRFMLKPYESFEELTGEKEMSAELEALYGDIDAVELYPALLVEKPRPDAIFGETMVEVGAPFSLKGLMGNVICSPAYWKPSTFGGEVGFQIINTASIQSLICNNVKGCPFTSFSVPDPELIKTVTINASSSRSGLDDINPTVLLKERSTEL
In words: Inhibition of human COX2 assessed as reduction in appearance of oxidized TMPD using arachidonic acid as substrate by colorimetric assay.

For data set [4], the target named is T1, Solute carrier family 2, facilitated glucose transporter member 1. Briefly: Inhibition of GLUT1-mediated 2NBDG uptake in human Caco2 cells at 0.01 to 0.1 mM after 10 mins by Hoechst 33342 staining based fluorescence assay. In kind it is cell-based. The following applies: caco-2, 10 min, 100 µM.
The target is the same in data set [5]. In words: Permeability across basolateral to apical side in human Caco2 cells assessed as GLUT1-mediated drug transport by transportability method. Type of data set: ADME, cell-based. The following applies: Caco-2. A general note: Caco-2 monolayers are a common model of the intestinal barrier.
Data set [6] relates to Caco-2. Briefly: Cell cycle arrest in human Caco2 cells assessed as accumulation at G2/M-phase at 100 uM after 24 hrs by propidium iodide staining based flow cytometry. In kind it is functional.
In data set [7] the target is T4, GLUT1 (Solute carrier family 2, facilitated glucose transporter member 1) (Homo sapiens, UniProt P11166).
T4 sequence (P11166 whole entry): T1 sequence (P11166 whole entry)
In words: Apparent permeability across basolateral to apical side in human Caco2 cells assessed as GLUT1-mediated drug transport at 100 uM after 120 mins by UV-Visible spectroscopic method. Type of data set: ADME, cell-based. The following applies: Caco-2.

The nature of data set [8]: Apparent permeability across apical to basolateral side in human Caco2 cells at 100 uM after 120 mins by UV-Visible spectroscopic method. Type of data set: ADME, cell-based. The following applies: Caco-2.
In data set [9] the target is T5, Prostaglandin G/H synthase 2 (Homo sapiens) (UniProt P35354).
T5 sequence (whole entry): T3 sequence (P35354 whole entry)
Briefly: Inhibition of human COX2 assessed as reduction in appearance of oxidized TMPD at 50 uM using arachidonic acid as substrate by colorimetric assay relative to control.

Data set [10] deals with Caco-2. In words: Cell cycle arrest in human Caco2 cells assessed as accumulation at S-phase at 100 uM after 24 hrs by propidium iodide staining based flow cytometry. In kind it is functional. Background: Flow cytometry measures light scatter and fluorescence of single cells or particles in a stream.
The target of data set [11] is T2, Prostaglandin G/H synthase 1. Briefly: Inhibition of human COX1 assessed as reduction in appearance of oxidized TMPD using arachidonic acid as substrate by colorimetric assay.
For another data set, the species on record is Homo sapiens. Briefly: Selectivity index, ratio of IC50 for inhibition of human COX2 to IC50 for inhibition of human COX1.
Data set [12] concerns Caco-2. Briefly: Cell cycle arrest in human Caco2 cells assessed as accumulation at G0/G1-phase at 100 uM after 24 hrs by propidium iodide staining based flow cytometry. In kind it is functional.
For data set [13], the target named is T6, Prostaglandin G/H synthase 1 (Mus musculus) (UniProt P22437).
T6 sequence (whole entry): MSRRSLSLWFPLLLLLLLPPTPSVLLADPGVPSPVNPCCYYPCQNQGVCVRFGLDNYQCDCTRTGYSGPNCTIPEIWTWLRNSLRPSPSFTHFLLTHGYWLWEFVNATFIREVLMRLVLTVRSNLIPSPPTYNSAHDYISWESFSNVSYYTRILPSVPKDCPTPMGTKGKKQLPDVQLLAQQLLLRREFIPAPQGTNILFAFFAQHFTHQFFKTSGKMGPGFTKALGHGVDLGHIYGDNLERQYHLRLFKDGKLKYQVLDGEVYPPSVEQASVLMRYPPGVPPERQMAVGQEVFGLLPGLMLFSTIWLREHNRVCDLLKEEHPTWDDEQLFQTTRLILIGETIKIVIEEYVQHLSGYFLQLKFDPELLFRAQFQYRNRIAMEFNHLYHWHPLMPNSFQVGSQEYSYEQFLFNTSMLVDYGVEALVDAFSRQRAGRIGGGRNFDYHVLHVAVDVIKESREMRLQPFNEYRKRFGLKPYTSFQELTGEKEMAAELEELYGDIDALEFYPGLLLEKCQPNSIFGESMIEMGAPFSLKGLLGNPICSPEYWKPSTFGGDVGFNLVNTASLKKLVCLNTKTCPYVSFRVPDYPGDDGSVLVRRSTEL
Briefly: Inhibition of COX1 in mouse BV2 cells assessed as reduction in LPS-stimulated PGE2 release by measuring PGE2 level at 0.5 uM preincubated for 1 hr followed by LPS addition measured after 48 hrs by immunoassay (reference value: 0.7555 +/- 0.032 ng/ml). In kind it is cell-based.

Data set [14] in a line: Retention time of the compound by HPLC analysis. In kind it is physicochemical.
Data set [15] is described as follows: Chemical stability in pH 8.8 simulated gut district fluid at 2.5 mg/ml after 60 mins by HPLC analysis. Type of data set: ADME, physicochemical. The conditions noted are these: buffer, pH 8.8, 1 h.
Data set [16] can be described thus: Chemical stability in pH 1 simulated gastric fluid at 2.5 mg/ml after 60 mins by HPLC analysis. In kind it is ADME, physicochemical. The conditions noted are these: simulated gi fluid, pH 1, 1 h.
The target in data set [17] is T6, Prostaglandin G/H synthase 1 (Mus musculus). Briefly: Inhibition of COX1 in mouse BV2 cells assessed as reduction in LPS-stimulated PGE2 release by measuring PGE2 level at 1 uM preincubated for 1 hr followed by LPS addition measured after 48 hrs by immunoassay (reference value: 0.7555 +/- 0.032 ng/ml). Type of data set: cell-based.
Data set [18] is described as follows: Metabolic stability in rat liver S9 fraction after 30 mins in presence of NADP+ by HPLC analysis. The conditions noted are these: s9, 0.5 h. Type of data set: ADME, subcellular.
Data set [19] deals with T6, Prostaglandin G/H synthase 1 (Mus musculus). In words: Inhibition of COX1 in mouse BV2 cells assessed as reduction in LPS-stimulated PGE2 release by measuring PGE2 level at 10 uM preincubated for 1 hr followed by LPS addition measured after 48 hrs by immunoassay (reference value: 0.7555 +/- 0.032 ng/ml). Type of data set: cell-based.
Data set [20] is described as follows: Chemical stability in pH 7.3 simulated blood fluid at 2.5 mg/ml after 60 mins by HPLC analysis. Type of data set: ADME, physicochemical. The following applies: pH 7.3, 1 h.

T2 sequence (P23219 whole entry): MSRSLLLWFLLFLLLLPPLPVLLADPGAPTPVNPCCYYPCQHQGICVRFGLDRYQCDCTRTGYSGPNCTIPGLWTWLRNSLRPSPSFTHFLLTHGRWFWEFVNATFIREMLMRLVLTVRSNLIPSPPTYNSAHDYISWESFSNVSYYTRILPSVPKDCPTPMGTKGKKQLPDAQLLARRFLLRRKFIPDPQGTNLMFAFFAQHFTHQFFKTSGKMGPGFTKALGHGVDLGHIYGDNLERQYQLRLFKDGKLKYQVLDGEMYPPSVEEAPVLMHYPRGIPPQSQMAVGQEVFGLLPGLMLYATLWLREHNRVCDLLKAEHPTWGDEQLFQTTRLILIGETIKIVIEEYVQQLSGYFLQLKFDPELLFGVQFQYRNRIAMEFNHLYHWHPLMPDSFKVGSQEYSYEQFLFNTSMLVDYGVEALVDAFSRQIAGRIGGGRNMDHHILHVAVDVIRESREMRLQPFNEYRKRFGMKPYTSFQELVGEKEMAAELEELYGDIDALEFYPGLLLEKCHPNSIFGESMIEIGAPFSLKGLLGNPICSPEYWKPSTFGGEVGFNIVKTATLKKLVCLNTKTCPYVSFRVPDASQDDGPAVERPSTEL

For `OC[C@H]1OC(O)[C@H](O)[C@@H](O)[C@@H]1O` (some centres not stated) [DEXTROSE], the “inhibition (INH)” value in data set [1] is reported as “Active”.

Consider `COc1ccc(-c2noc(CC(=O)NCCCCC(=O)OC[C@H]3OC(O)[C@H](O)[C@@H](O)[C@H]3O)c2-c2ccc(OC)cc2)cc1` (some centres not stated), for which the inhibition – broadly, the relative decrease from the control value, in per cent – in data set [2] was 38%; in data set [9], 24%. Besides, the half-inhibitory concentration (IC50) – broadly, the concentration that gives 50% inhibition – in data set [3] was more than 50 µM; in data set [11], more than 50000 nM. The “inhibition (INH)” value in data set [4] is reported as “Active”. Moreover, in data set [5], the permeability result is “Permeable”. In addition, the outcome with Caco-2 [6] and with Caco-2 [10] was Active. Also, the Papp B→A (in general, the apparent permeability from the basolateral to the apical side of a cell layer) at 2 h, 100 µM in data set [7] stood at 113 ×10⁻⁶ cm/s. For the same compound, in data set [8], the apical-to-basolateral permeability (Papp A→B) (as a rule, the apparent permeability from the apical to the basolateral side of a cell layer) at 2 h, 100 µM turned out to be 23.3 ×10⁻⁶ cm/s.

Take `COc1ccc(-c2noc(CC(=O)NCCCCCCCCCCC(=O)OC[C@H]3OC(O)[C@H](O)[C@@H](O)[C@H]3O)c2-c2ccc(OC)cc2)cc1` (some centres not stated): the values for the inhibition in data set [2] and in [9] were 90% and 64%, respectively. Further, the half-maximal inhibitory concentration (IC50) in [3] came out at 0.27 µM; in [11], 400 nM. In addition, the “inhibition (INH)” value in data set [4] is on record as “Active”. Also, the permeability result in data set [5] is on record as “Permeable”. Moreover, the Ratio IC50 in the data set listed under Homo sapiens amounted to 0.67. The result in the data set on Caco-2 [6], in the data set with Caco-2 [12] and with Caco-2 [10] was inactive. Moreover, the basolateral-to-apical permeability (Papp B→A) at 2 h, 100 µM in data set [7] was 58.7 ×10⁻⁶ cm/s. The Papp A→B at 2 h, 100 µM in data set [8] was found to be 16.9 ×10⁻⁶ cm/s.

Take `COc1ccc(-c2noc(CC(=O)O)c2-c2ccc(OC)cc2)cc1` [MOFEZOLAC]: the inhibition turned out to be 100% in [2] and 38% in [9]. In addition, the permeability result in data set [5] is given as “Permeable”. The result in the data set with Caco-2 [6], in the data set with Caco-2 [12] and in the data set with Caco-2 [10] was inactive. Also, the Papp B→A at 2 h, 100 µM in [7] stood at 46.1 ×10⁻⁶ cm/s. Also, in data set [13], the Activity amounted to 0.0328 ng/mL. Moreover, the apical-to-basolateral permeability (Papp A→B) at 2 h, 100 µM in data set [8] worked out at 41.4 ×10⁻⁶ cm/s.

Consider `COc1ccc(-c2noc(CC(=O)OC[C@H]3O[C@@H](O)[C@H](O)[C@@H](O)[C@H]3O)c2-c2ccc(OC)cc2)cc1`, for which, in [14], the Retention_time is listed as 7.504 min. The Stability entry in data set [15], in data set [16], in [18] and in data set [20] was “Stable” throughout. The inhibition in data set [2] came to 100%; in [9], 87%. The results for the half-inhibitory concentration (IC50) in [3] and in data set [11] were 3.1 µM and 270 nM, respectively. Besides, the “inhibition (INH)” value in [4] was “Active”. In addition, the permeability result in data set [5] is given as “Permeable”. Also, the Activity stood at 0.0178 ng/mL in [17], 0.0103 ng/mL in data set [19] and 0.0086 ng/mL in [13]. For the same compound, the Ratio IC50 in the data set filed under Homo sapiens amounted to 11.5. For the same compound, the result with Caco-2 [6], with Caco-2 [12] and with Caco-2 [10] was inactive. Further, the Papp B→A at 2 h, 100 µM in data set [7] was 87.5 ×10⁻⁶ cm/s. Further, the apical-to-basolateral permeability (Papp A→B) at 2 h, 100 µM in data set [8] was found to be 38 ×10⁻⁶ cm/s.
